{
  "source": "patent US7875633B2",
  "about": "“Phenylpyridone derivative” (Banyu Pharmaceutical Co., Ltd., priority 2005, dated 2011)",
  "data": [
    {"target": "T1, human MCH-1R (Homo sapiens, UniProt Q99705)", "T1 construct": "expressed in transfected cells; host or cells: CHO-K1 (American Type Culture Collection); membrane samples", "T1 sequence (Q99705 whole entry)": "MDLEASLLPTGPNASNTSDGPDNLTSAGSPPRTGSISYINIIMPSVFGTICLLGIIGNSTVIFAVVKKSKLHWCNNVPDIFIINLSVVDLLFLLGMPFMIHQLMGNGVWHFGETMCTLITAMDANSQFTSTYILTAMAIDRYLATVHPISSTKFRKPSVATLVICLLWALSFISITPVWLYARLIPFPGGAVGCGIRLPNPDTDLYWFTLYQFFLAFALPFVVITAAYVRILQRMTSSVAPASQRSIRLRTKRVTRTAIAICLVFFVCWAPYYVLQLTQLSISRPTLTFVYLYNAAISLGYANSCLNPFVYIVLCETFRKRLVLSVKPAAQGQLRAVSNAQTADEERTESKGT", "experiment": "MCH binding inhibition test", "conditions": "membranes of MCH-1R expressing CHO-K1 cells, 50 pM [125I]MCH, 25° C., one hour, pH 7.4; read-out: IC50 (50% inhibition concentration to the specific [125I]MCH binding)", "source_text": "Pharmacological Test Example 1 (MCH Binding Inhibition Test)\nA human MCH-1R encoding cDNA sequence [FEBS Letters, Vol. 398, 253 (1996); Biochimica et Biophisica Acta, Vol. 1401, 216 (1998)] was cloned to a plasmid vector pEF/myc/cyto (Invitrogen Corporation). The obtained expression vector was transfected to host cells CHO-K1 (American Type Culture Collection) using Lipofectamine Plus Reagent (Life Technology Inc.) to provide MCH-1R expression cells.\nMembrane samples prepared from the MCH-1R expression cells were incubated with each test compound and 50 pM of [^125I]MCH (NEN Co.), in an assay buffer (50 mM Tris buffer comprising 10 mM magnesium chloride, 2 mM ethylenediamine tetraacetate, 0.01% bacitracin and 0.2% bovine serum albumin; pH 7.4) at 25° C. for an hour, followed by filtration through a glass filter GF/C (Wattman Co.). After washing the glass filter with 50 mM Tris buffer (pH 7.4) comprising 10 mM magnesium chloride, 2 mM ethylenediamine tetraacetate and 0.04% Tween-20, the radioactive activity on the glass filter was measured. The non-specific binding was measured in the presence of 1 μM human MCH and 50% inhibition concentration (IC50 value) of each test compound to the specific [^125I]MCH binding was determined.", "units": {"IC50": "nM"}, "values": [
      {"smiles": "CCN(C)C/C=C/c1ccc(-n2ccc(OCc3ccc(Cl)cc3)cc2=O)cc1", "note": "[Example 3, 4-[(4-Chlorobenzyl)oxy]-1-(4-{(1E)-3-[ethyl(methyl)amino]-1-propen-1-yl}phenyl)pyridin-2(1H)-one]", "IC50": 1.5},
      {"smiles": "CCCN(C)C/C=C/c1ccc(-n2ccc(OCc3ccc(Cl)cc3)cc2=O)cc1", "note": "[Example 4, 4-[(4-Chlorobenzyl)oxy]-1-(4-{(1E)-3-[propyl(methyl)amino]-1-propen-1-yl}phenyl)pyridin-2(1H)-one]", "IC50": 1.2},
      {"smiles": "CC(C)N(C)C/C=C/c1ccc(-n2ccc(OCc3ccc(Cl)cc3)cc2=O)cc1", "note": "[Example 5, 4-[(4-Chlorobenzyl)oxy]-1-(4-{(1E)-3-[isopropyl(methyl)amino]-1-propen-1-yl]phenyl}pyridin-2(1H)-one]", "IC50": 1.4},
      {"smiles": "CCCCN(C)C/C=C/c1ccc(-n2ccc(OCc3ccc(Cl)cc3)cc2=O)cc1", "note": "[Example 6, 4-[(4-Chlorobenzyl)oxy]-1-(4-{(1E)-3-[butyl(methyl)amino]-1-propen-1-yl}phenyl)pyridin-2(1H)-one]", "IC50": 0.93},
      {"smiles": "CN(C)C/C=C/c1ccc(-n2ccc(OCc3ccc(Cl)cc3)cc2=O)cc1", "note": "[Example 8, 4-[(4-Chlorobenzyl)oxy]-1-(4-[(1E)-3-(dimethylamino)-1-propen-1-yl]phenyl)pyridin-2(1H)-one]", "IC50": 1.4},
      {"smiles": "O=c1cc(OCc2ccc(F)cc2)ccn1-c1ccc(NCCN2CCCC2)cc1", "note": "[Example 14, 4-[(4-Fluorobenzyl)oxy]-1-{4-[(2-pyrrolidin-1-ylethyl)amino]phenyl}pyridin-2(1H)-one]", "IC50": 4.5},
      {"smiles": "CO[C@H]1CCN(CCc2ccc(-n3ccc(OCc4ccc(F)cc4)cc3=O)cc2)C1", "note": "[Example 27, 4-[(4-Fluorobenzyl)oxy]-1-(4-{2-[(3S)-3-methoxypyrrolidin-1-yl]ethyl}phenyl)pyridin-2(1H)-one]", "IC50": 5.8},
      {"smiles": "CCN(CC)CCc1ccc(-n2ccc(OCc3ccc(Cl)cn3)cc2=O)cc1", "note": "[Example 32, 4-[(5-Chloropyridin-2-yl)methoxy]-1-{4-[2-(diethylamino)ethyl]phenyl}pyridin-2(1H)-one]", "IC50": 6.2},
      {"smiles": "O=c1cc(OCc2ccc(Cl)cn2)ccn1-c1ccc(CCNC2CCCC2)cc1", "note": "[Example 37, 4-[(5-Chloropyridin-2-yl)methoxy]-1-{4-[(2-cyclopentylamino)ethyl]phenyl}pyridin-2(1H)-one]", "IC50": 4.6},
      {"smiles": "O=c1cc(OCc2ccc(F)cc2)ccn1-c1ccc([C@H]2C[C@H](N3CCCC3)C2)cc1", "note": "[Example 53, 4-[(4-Fluorobenzyl)oxy]-1-[4-(trans-3-pyrrolidin-1-ylcyclobutyl)phenyl]pyridin-2(1H)-one]", "IC50": 3.5}
    ]}
  ]
}
